Activity calls are given as the source filed them. No cut-off for these calls is given here.
Legend:
[1] = Antifungal activity against Glorosprium musarum at 1 ug/mL by disc diffusion method; assay type: functional; details: Gloeosporium
Phytophthora litchii = test: Antifungal activity against Peronophythora litchii at 1 mg/mL by disc diffusion method
[2] = Antifungal activity against […] musarum at 1 mg/mL by disc diffusion method; details: Gloeosporium
Glomerella cingulata = test: Antifungal activity against Glomerella cingulata at 1 mg/mL by disc diffusion method

Compound	inhibition zone (IZ) [1]	Activity (Phytophthora litchii)	Activity [2]	Activity (Glomerella cingulata)
COC(=O)Nc1nc2ccccc2[nH]1 [CARBENDAZIM]	4 mm			
CC1(C)O[C@](C(=O)O)([C@H]2CC[C@]3(C)[C@@H]2CC[C@@H]2[C@@]4(C)CC[C@H](O[C@@H]5O[C@H](CO)[C@@H](O)[C@H](O)[C@H]5O)[C@](C)(CO[C@@H]5O[C@H](CO)[C@@H](O)[C@H](O)[C@H]5O)[C@@H]4CC[C@]23C)C[C@H](O)[C@@H]1O [GENTIRIGEOSIDE C]		inactive	inactive	
C[C@]12CC[C@H](O[C@@H]3O[C@H](CO)[C@@H](O)[C@H](O)[C@H]3O)[C@](C)(CO)[C@@H]1CC[C@]1(C)[C@@H]2CC[C@@H]2[C@@H]([C@]3(C(=O)O)C[C@H](O)[C@H](O)[C@](C)(CO)O3)CC[C@]21C		inactive	inactive	inactive
CC1(C)O[C@](C(=O)O)([C@H]2CC[C@]3(C)[C@@H]2CC[C@@H]2[C@@]4(C)CC[C@H](O)[C@](C)(CO)[C@@H]4CC[C@]23C)C[C@H](O)[C@@H]1O		inactive	inactive	inactive
CC1(C)O[C@](C(=O)O)([C@H]2CC[C@]3(C)[C@@H]2CC[C@@H]2[C@@]4(C)CC[C@H](O[C@@H]5O[C@H](CO)[C@@H](O)[C@H](O)[C@H]5O)[C@](C)(CO)[C@@H]4CC[C@]23C)C[C@H](O)[C@@H]1O [GENTIRIGEOSIDE A]		inactive	inactive	
CC1(C)O[C@](C(=O)O)([C@H]2CC[C@]3(C)[C@@H]2CC[C@@H]2[C@@]4(C)CC[C@H](O[C@@H]5O[C@H](CO)[C@@H](O)[C@H](O)[C@H]5O[C@@H]5O[C@H](CO)[C@@H](O)[C@H](O)[C@H]5O)C(C)(C)[C@@H]4CC[C@]23C)C[C@H](O)[C@@H]1O [GENTIRIGEOSIDE E]		inactive	inactive	
CC1(C)O[C@](C(=O)O)([C@H]2CC[C@]3(C)[C@@H]2CC[C@@H]2[C@@]4(C)CC[C@H](O[C@@H]5O[C@H](CO)[C@@H](O)[C@H](O)[C@H]5O[C@@H]5O[C@H](CO)[C@@H](O)[C@H](O)[C@H]5O)[C@](C)(CO)[C@@H]4CC[C@]23C)C[C@H](O)[C@@H]1O		inactive	inactive	inactive

Source: ChEMBL document CHEMBL1147121, “Dammarane triterpenoids from the roots of Gentiana rigescens” (2007)
